This is an account of results in US20200237703A1, “OLEACEIN FOR USE IN ATHEROSCLEROSIS PREVENTION” (WARSZAWSKI UNIWERSYTET MEDYCZNY, priority 2017, published 2020).

Each structure is given as a SMILES string.

One series relates to macrophage foam cells. Description: Formation of foam cells / lipid deposits in macrophages, Red Oil O staining. In kind it is cell-based, human. The note with it: oleacein 50 μmol/L + oxLDL 50 μg/mL. The procedure: (§1) All experiments were conducted with the use of macrophage cells isolated from human peripheral blood. […] Expression of scavenger receptors was determined using flow cytometer. Visualization of lipid deposits in macrophages (foam cells) was carried out with the use of well-known Red Oil O staining method.
The images were acquired using fluorescence microscope Nikon TS100F. D—control, the cells without stimulation, E—the cells incubated with oleacein (50 μmol/L), F—the cells stimulated with oxLDL (50 μg/mI)—stimulated control, G—the cells incubated with oleacein (50 μmol/L) and oxLDL (50 μg/mL).

Series [1] relates to macrophage cells isolated from human peripheral blood. Description: Cytotoxicity on macrophage cells. The series is classed as cell-based. To be noted: oleacein 20 μmol/L and 50 μmol/L, 72 hours. The procedure: as §1

As for `C/C=C(/C=O)[C@@H](CC=O)CC(=O)OCCc1ccc(O)c(O)c1` [oleacein], in the series on macrophage foam cells, the “effect on the formation of foam cells and lipid deposits” value is given as “inhibitory effect”. Further, the “cytotoxicity on macrophage cells” value in series [1] is reported as “no cytotoxicity”.
